Literature values, collected in paper PMC12162873, “Modulating phosphatase DUSP22 with BML-260 ameliorates skeletal muscle wasting via Akt independent JNK-FOXO3a repression” (EMBO Molecular Medicine, 2025).

Legend:
[1] = test system: aldose reductase; design: method as in Ramirez and Borja, 2008; details: drug for diabetic neuropathy; ref Ramirez and Borja, 2008; cited from earlier work
[2] = test system: JNK; design: method as in ref [19] Bennett et al, 2001; details: ref [19] Bennett et al, 2001; cited from earlier work

Structure (SMILES) | safety and tolerability [1] | selectivity versus a range of kinases and enzymes tested [2]
CC(/C=C1\SC(=S)N(CC(=O)O)C1=O)=C\c1ccccc1 [Epalrestat] | safe, well-tolerated | 
Oc1c2ccccc2c2c3c(cccc13)N=N2 [SP600125] |  | > 20 -fold
